Molecules are shown by their SMILES. Calls of active or inactive are those of the source. The calls are words filed in the database; no cut-off is given here.

Test [1] addresses T1, Protein cereblon/Fibroblast growth factor receptor 1 (Homo sapiens) (UniProt P11362+Q96SW2). Nature of the test: PROTAC activity at FGFR1/CRBN in human MCF7 cells assessed as FGFR1 degradation at 100 nM incubated for 6 hrs by Western blot analysis. The class given is cell-based. In general terms: In western blotting, separated proteins are transferred to a membrane and probed.

The target of test [2] is T1, Protein cereblon/Fibroblast growth factor receptor 1 (Homo sapiens). Nature of the test: PROTAC activity at FGFR1/CRBN in human DMS-114 cells assessed as FGFR1 degradation at 0.1 to 10 uM incubated for 6 hrs by Western blot analysis. The following applies: dose 0.1-10 µM. It counts as cell-based.
Test [3] shares this target. Nature of the test: PROTAC activity at FGFR1/CRBN in human MCF7 cells assessed as FGFR1 degradation at 0.1 to 10 uM incubated for 6 hrs by Western blot analysis. It counts as cell-based. The following applies: dose 0.1-10 µM.
Test [4] has the same target. Kind of test: PROTAC activity at FGFR1/CRBN in human NCI-H1581 cells assessed as FGFR1 degradation at 0.1 to 10 uM incubated for 6 hrs by Western blot analysis. The following applies: dose 0.1-10 µM. The class given is cell-based.
Test [5] deals with Protein cereblon/Fibroblast growth factor receptor 3 (Homo sapiens) (UniProt P22607+Q96SW2). Kind of test: PROTAC activity at FGFR3/CRBN in human MCF7 cells assessed as FGFR3 degradation at 0.1 to 10 uM incubated for 6 hrs by Western blot analysis. The class given is cell-based. Particulars: dose 0.1-10 µM.
Test [6] addresses Protein cereblon/Fibroblast growth factor receptor 4 (Homo sapiens) (UniProt P22455+Q96SW2). Kind of test: PROTAC activity at FGFR4/CRBN in human MCF7 cells assessed as FGFR4 degradation at 0.1 to 10 uM incubated for 6 hrs by Western blot analysis. It counts as cell-based. The following applies: dose 0.1-10 µM.
For test [7], the target named is Protein cereblon/Fibroblast growth factor receptor 2 (Homo sapiens) (UniProt P21802+Q96SW2). Nature of the test: PROTAC activity at FGFR2/CRBN in human MCF7 cells assessed as FGFR2 degradation at 0.1 to 10 uM incubated for 6 hrs by Western blot analysis. It counts as cell-based. Particulars: dose 0.1-10 µM.
The next test deals with NCI-H1581. Kind of test: Antiproliferative activity against human NCI-H1581 cells assessed as inhibition of cell growth incubated for 120 hrs by MTT assay. The class given is functional, cell-based. Particulars: NCI-H1581, 120 h. For orientation: Formazan colour is commonly taken as a measure of viable cells.
The next test relates to DMS-114. Kind of test: Antiproliferative activity against human DMS-114 cells assessed as inhibition of cell growth incubated for 120 hrs by MTT assay. The class given is functional, cell-based. Particulars: DMS-114, 120 h.
The target of test [8] is von Hippel-Lindau disease tumor suppressor/Fibroblast growth factor receptor 1 (Homo sapiens) (UniProt P11362+P40337). Kind of test: PROTAC activity at FGFR1/VHL in human MCF7 cells assessed as FGFR1 degradation at 100 nM incubated for 6 hrs by Western blot analysis. The class given is cell-based.
von Hippel-Lindau disease tumor suppressor/Fibroblast growth factor receptor 1 (Homo sapiens), sequence (P11362 22-822 limits assumed): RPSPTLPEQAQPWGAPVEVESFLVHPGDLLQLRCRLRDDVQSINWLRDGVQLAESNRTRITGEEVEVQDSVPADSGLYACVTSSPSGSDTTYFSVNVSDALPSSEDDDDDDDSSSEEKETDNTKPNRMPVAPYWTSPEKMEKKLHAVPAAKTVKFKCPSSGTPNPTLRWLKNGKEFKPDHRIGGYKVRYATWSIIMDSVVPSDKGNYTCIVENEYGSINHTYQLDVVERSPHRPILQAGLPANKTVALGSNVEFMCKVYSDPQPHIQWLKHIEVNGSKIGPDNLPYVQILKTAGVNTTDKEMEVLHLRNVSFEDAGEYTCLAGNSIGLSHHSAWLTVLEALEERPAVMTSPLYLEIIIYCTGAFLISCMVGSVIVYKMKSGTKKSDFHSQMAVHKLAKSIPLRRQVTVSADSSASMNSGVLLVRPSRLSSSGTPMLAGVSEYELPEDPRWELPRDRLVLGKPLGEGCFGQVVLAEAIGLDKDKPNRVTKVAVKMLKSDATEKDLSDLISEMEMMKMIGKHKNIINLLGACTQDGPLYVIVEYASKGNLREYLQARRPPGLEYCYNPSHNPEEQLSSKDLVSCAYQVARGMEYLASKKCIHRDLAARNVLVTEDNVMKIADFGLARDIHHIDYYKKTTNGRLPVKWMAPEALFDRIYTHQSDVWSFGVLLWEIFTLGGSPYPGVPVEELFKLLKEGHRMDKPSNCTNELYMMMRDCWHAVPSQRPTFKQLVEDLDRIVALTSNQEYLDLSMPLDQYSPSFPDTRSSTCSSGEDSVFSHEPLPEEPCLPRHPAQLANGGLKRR
von Hippel-Lindau disease tumor suppressor/Fibroblast growth factor receptor 1 (Homo sapiens), sequence (P40337 whole entry partner): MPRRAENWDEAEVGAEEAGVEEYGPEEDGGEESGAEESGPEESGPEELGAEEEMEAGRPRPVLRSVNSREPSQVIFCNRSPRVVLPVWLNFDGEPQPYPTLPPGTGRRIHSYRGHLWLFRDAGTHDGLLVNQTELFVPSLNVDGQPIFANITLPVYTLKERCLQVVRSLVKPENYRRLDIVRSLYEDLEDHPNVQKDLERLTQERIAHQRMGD

Protein cereblon/Fibroblast growth factor receptor 2 (Homo sapiens), sequence (P21802 22-821 limits assumed): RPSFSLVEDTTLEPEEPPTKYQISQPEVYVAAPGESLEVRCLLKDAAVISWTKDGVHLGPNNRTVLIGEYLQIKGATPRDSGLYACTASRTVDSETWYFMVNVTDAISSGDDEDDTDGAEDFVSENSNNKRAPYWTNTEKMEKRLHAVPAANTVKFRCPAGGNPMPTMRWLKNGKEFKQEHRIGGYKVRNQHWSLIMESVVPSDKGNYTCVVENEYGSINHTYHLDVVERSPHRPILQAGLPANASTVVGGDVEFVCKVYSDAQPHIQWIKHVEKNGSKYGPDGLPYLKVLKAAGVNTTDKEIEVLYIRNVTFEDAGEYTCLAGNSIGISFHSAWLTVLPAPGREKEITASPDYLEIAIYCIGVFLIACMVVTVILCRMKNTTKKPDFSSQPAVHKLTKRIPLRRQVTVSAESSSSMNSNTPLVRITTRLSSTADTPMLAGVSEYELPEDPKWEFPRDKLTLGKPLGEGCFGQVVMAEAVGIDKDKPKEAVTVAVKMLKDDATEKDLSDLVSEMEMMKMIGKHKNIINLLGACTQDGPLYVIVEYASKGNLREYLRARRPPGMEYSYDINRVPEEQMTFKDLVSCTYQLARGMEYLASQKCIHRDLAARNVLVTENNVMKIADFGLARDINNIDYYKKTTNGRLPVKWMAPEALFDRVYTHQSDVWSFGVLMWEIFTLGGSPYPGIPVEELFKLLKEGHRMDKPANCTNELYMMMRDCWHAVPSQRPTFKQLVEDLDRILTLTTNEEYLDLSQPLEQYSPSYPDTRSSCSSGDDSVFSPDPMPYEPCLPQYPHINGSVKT
Protein cereblon/Fibroblast growth factor receptor 2 (Homo sapiens), sequence (Q96SW2 whole entry partner): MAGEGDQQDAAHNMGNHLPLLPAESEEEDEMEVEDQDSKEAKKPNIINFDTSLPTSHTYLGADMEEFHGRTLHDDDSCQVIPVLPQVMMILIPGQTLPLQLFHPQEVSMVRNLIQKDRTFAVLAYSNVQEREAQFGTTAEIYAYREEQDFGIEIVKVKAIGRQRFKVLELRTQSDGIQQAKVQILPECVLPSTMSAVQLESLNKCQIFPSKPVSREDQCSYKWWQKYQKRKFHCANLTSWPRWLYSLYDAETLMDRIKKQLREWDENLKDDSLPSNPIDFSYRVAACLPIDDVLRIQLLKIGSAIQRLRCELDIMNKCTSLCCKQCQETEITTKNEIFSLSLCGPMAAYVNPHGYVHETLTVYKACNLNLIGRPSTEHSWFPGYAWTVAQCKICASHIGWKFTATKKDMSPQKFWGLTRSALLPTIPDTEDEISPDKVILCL
Protein cereblon/Fibroblast growth factor receptor 3 (Homo sapiens), sequence (P22607 whole entry, looked up): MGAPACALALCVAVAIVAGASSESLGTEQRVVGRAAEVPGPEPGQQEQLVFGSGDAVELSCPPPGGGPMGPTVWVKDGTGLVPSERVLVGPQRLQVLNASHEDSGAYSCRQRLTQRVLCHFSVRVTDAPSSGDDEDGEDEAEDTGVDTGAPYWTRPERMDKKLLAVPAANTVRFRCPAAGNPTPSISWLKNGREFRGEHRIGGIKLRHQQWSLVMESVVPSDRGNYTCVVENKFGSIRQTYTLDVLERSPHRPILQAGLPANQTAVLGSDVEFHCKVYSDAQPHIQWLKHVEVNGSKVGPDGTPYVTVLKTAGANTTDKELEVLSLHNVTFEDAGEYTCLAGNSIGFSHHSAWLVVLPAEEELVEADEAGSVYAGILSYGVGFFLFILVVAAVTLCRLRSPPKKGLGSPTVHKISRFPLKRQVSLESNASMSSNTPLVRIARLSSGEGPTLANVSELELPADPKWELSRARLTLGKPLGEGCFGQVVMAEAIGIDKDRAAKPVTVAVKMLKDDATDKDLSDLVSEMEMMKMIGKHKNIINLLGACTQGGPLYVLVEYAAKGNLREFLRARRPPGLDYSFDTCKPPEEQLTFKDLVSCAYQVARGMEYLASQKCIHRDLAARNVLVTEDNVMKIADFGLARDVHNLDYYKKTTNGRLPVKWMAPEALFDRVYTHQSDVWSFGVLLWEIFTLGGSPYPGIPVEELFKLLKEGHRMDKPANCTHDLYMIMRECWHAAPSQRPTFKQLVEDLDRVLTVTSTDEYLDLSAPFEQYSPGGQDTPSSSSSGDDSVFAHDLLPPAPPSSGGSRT
Protein cereblon/Fibroblast growth factor receptor 3 (Homo sapiens), sequence (Q96SW2 whole entry, looked up): as the sequence (Q96SW2 whole entry partner) above
T1 sequence (P11362 whole entry, looked up): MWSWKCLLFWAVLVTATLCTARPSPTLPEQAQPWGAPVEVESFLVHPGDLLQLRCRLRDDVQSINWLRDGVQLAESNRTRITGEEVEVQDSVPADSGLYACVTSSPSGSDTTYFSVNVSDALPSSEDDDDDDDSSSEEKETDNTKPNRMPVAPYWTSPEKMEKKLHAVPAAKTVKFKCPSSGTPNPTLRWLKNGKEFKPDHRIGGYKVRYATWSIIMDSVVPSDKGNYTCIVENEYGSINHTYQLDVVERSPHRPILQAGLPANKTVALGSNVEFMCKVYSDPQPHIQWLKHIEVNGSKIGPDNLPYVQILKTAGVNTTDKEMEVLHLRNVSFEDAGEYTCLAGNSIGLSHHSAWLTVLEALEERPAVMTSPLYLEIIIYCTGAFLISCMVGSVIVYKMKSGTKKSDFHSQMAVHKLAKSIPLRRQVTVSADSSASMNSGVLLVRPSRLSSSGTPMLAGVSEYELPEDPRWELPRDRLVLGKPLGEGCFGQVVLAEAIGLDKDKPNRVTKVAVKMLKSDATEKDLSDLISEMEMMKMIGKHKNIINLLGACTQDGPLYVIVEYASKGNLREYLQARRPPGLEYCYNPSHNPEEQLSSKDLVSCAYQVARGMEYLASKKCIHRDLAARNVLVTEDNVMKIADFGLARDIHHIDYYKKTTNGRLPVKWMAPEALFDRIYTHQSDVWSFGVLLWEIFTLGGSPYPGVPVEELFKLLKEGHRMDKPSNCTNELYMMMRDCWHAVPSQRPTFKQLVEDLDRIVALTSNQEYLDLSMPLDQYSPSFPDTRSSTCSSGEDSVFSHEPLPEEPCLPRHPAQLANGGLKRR
T1 sequence (Q96SW2 whole entry, looked up): as the sequence (Q96SW2 whole entry partner) above
Protein cereblon/Fibroblast growth factor receptor 4 (Homo sapiens), sequence (P22455 whole entry, looked up): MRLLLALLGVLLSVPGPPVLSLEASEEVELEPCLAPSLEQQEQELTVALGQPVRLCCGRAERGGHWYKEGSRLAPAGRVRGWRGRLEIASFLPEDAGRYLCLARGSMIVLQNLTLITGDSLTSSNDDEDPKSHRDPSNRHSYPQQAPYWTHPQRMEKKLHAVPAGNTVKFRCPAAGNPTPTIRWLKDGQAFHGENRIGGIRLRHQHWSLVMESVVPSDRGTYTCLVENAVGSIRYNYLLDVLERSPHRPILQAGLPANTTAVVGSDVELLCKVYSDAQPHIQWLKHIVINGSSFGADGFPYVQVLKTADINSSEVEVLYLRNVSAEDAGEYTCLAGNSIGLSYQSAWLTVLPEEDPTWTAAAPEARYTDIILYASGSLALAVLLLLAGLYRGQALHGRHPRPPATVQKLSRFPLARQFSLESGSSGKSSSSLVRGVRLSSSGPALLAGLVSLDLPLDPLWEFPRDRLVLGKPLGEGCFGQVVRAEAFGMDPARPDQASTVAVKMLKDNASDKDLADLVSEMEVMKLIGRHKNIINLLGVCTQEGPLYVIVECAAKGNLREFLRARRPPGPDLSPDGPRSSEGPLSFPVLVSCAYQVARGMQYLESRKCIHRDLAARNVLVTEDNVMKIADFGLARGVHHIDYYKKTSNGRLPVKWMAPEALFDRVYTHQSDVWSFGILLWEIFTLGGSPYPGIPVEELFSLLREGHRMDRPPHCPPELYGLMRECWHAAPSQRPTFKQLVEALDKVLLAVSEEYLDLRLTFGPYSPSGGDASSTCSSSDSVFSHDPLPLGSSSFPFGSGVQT
Protein cereblon/Fibroblast growth factor receptor 4 (Homo sapiens), sequence (Q96SW2 whole entry, looked up): as the sequence (Q96SW2 whole entry partner) above

With `COc1cc(CCc2cc(NC(=O)c3ccc(N4C[C@@H](C)N(CC(=O)N/N=C/c5ccc(OCCOCCOCC(=O)NCC#Cc6cccc7c6CN(C6CCC(=O)NC6=O)C7=O)cc5)[C@@H](C)C4)cc3)n[nH]2)cc(OC)c1` (stereo not given in full), the result in test [1] was Active.
Take `COc1cc(CCc2cc(NC(=O)c3ccc(N4C[C@@H](C)N(CC(=O)NCCc5ccc(OCCOCCOCC(=O)NC#Cc6cccc7c6CN(C6CCC(=O)NC6=O)C7=O)cc5)[C@@H](C)C4)cc3)n[nH]2)cc(OC)c1` (stereo not given in full): the outcome in [2] and in test [4] was inactive. Moreover, the outcome in [3] was Active.
As for `COc1cc(CCc2cc(NC(=O)c3ccc(N4C[C@@H](C)N(CC(=O)N/N=C/c5ccc(OCCCCC(=O)NCC#Cc6cccc7c6CN(C6CCC(=O)NC6=O)C7=O)cc5)[C@@H](C)C4)cc3)n[nH]2)cc(OC)c1` (stereo not given in full), in test [1], the result was Active.
As to `COc1cc(CCc2cc(NC(=O)c3ccc(N4C[C@@H](C)N(CC(=O)N/N=C/c5ccc(OCCOCCOCCOCC(=O)NCC#Cc6cccc7c6CN(C6CCC(=O)NC6=O)C7=O)cc5)[C@@H](C)C4)cc3)n[nH]2)cc(OC)c1` (stereo not given in full), the result in test [5], in test [6] and in test [7] was inactive. Further, in test [3], the outcome was Active.
With `COc1cc(CCc2cc(NC(=O)c3ccc(N4C[C@@H](C)N(CC(=O)NCCc5ccc(OCC(=O)N[C@H](C(=O)N6C[C@H](O)C[C@H]6C(=O)N[C@@H](C)c6ccc(-c7scnc7C)cc6)C(C)(C)C)cc5)[C@@H](C)C4)cc3)n[nH]2)cc(OC)c1`, the IC50 was determined as 160 nM in the test with NCI-H1581 and 139 nM in the test with DMS-114.
In the case of `COc1cc(CCc2cc(NC(=O)c3ccc(N4C[C@@H](C)N(CC(=O)N/N=C\c5ccc(OCCCCC(=O)N[C@H](C(=O)N6C[C@H](O)C[C@H]6C(=O)N[C@@H](C)c6ccc(-c7scnc7C)cc6)C(C)(C)C)cc5)[C@@H](C)C4)cc3)n[nH]2)cc(OC)c1`, the result in [8] was Active.
With `COc1cc(CCc2cc(NC(=O)c3ccc(N4C[C@@H](C)N[C@@H](C)C4)cc3)n[nH]2)cc(OC)c1` [FEXAGRATINIB], the concentration for half-maximal inhibition (IC50) turned out to be 4 nM in the test on NCI-H1581 and 14 nM with DMS-114.
For the compound `COc1cc(CCc2cc(NC(=O)c3ccc(N4C[C@@H](C)N(CC(=O)N/N=C/c5ccc(OCCOCC(=O)NCC#Cc6cccc7c6CN(C6CCC(=O)NC6=O)C7=O)cc5)[C@@H](C)C4)cc3)n[nH]2)cc(OC)c1` (stereo not given in full), the result in test [5], in test [6] and in test [7] was inactive. Also, in [3], the outcome was Active.
`COc1cc(CCc2cc(NC(=O)c3ccc(N4C[C@@H](C)N(CC(=O)N/N=C/c5ccc(OCCOCCOCCOCCOCCOCC(=O)NCC#Cc6cccc7c6CN(C6CCC(=O)NC6=O)C7=O)cc5)[C@@H](C)C4)cc3)n[nH]2)cc(OC)c1` (stereo not given in full): the outcome in test [5], in test [6] and in test [7] was inactive. In test [3], the outcome was Active.
Turning to `COc1cc(CCc2cc(NC(=O)c3ccc(N4C[C@@H](C)N(CC(=O)N/N=C\c5ccc(OCC(=O)N[C@H](C(=O)N6C[C@H](O)C[C@H]6C(=O)N[C@@H](C)c6ccc(-c7scnc7C)cc6)C(C)(C)C)cc5)[C@@H](C)C4)cc3)n[nH]2)cc(OC)c1`, the outcome in test [8] was Active.
On the same count and under the same terms, for `COc1cc(CCc2cc(NC(=O)c3ccc(N4C[C@@H](C)N(CC(=O)N/N=C/c5ccc(OCCOCCOCCOCC(=O)N[C@H](C(=O)N6C[C@H](O)C[C@H]6C(=O)N[C@@H](C)c6ccc(-c7scnc7C)cc6)C(C)(C)C)cc5)[C@@H](C)C4)cc3)n[nH]2)cc(OC)c1` the value was “Active”; for `COc1cc(CCc2cc(NC(=O)c3ccc(N4C[C@@H](C)N(CC(=O)N/N=C/c5ccc(OCCOCCOCCOCCOCC(=O)N[C@H](C(=O)N6C[C@H](O)C[C@H]6C(=O)N[C@@H](C)c6ccc(-c7scnc7C)cc6)C(C)(C)C)cc5)[C@@H](C)C4)cc3)n[nH]2)cc(OC)c1`, “Active”.

The term IC50 denotes the concentration needed to halve the response being measured.
